From US10681909B2, “Herbicidal triazoles” (FMC Corporation, priority 2014, dated 2020) come the findings set out here.

In test [1] the test system is field poppy. Kind of test: Test D postemergence. In kind it is in vivo, Papaver rhoeas. As to conditions: scale 0 to 100. The text has this:
(§1) Seeds of plant species selected from bluegrass (annual bluegrass, Poa annua), blackgrass (Alopecurus myosuroides), canarygrass (Phalaris minor), chickweed (common chickweed, Stellaria media), galium (catchweed bedstraw, Galium aparine), bromegrass, down (downy bromegrass, Bromus tectorum), Russian thistle (Salsola kali), field poppy (Papaver rhoeas), field violet (Viola arvensis), foxtail, green (green foxtail, Setaria viridis), deadnettle (henbit deadnettle, Lamium amplexicaule), ryegrass, Ital. (Italian ryegrass, Lolium multiflorum), kochia (Kochia scoparia), lambsquarters (Chenopodium album), oilseed rape (Brassica napus), pigweed (Amaranthus retroflexus), chamomile (scentless chamomile, Matricaria inodora), speedwell (bird's-eye speedwell, Veronica persica), barley, spring (spring barley, Hordeum vulgare), wheat, spring (spring wheat, Triticum aestivum), buckwheat, wild (wild buckwheat, Polygonum convolvulus), wild mustard (Sinapis arvensis), oat, wild (wild oat, Avena fatua), radish, wild (wild radish, Raphanus raphanistrum), […]), barley, winter (winter barley, Hordeum vulgare), and wheat, winter (winter wheat, Triticum aestivum) were planted into a silt loam soil and treated preemergence with test chemicals formulated in a non-phytotoxic solvent mixture which included a surfactant. At the same time, these species were planted in pots containing Sunshine Redi-Earth® planting medium comprising spaghnum peat moss, vermiculite, starter nutrients and dolomitic limestone and treated with postemergence applications of the test chemicals formulated in the same manner. Plants ranged in height from 2 to 18 cm (1- to 4-leaf stage). Treated plants and controls were maintained in a controlled growth environment for 14 to 21 d after which time all species were compared to controls and visually evaluated. […] A dash (-) response means no test result.

Test [2] concerns field violet. Kind of test: Test D postemergence. In kind it is in vivo, Viola arvensis. As to conditions: scale 0 to 100.
Text: as §1

Test [3] relates to field poppy. The test can be described thus: Test D preemergence. Format: in vivo, Papaver rhoeas. As to conditions: scale 0 to 100.
Text: as §1

For test [4], the system named is speedwell. Kind of test: Test D postemergence. To be noted: scale 0 to 100. Format: in vivo, Veronica persica.
Text: as §1

Test [5] relates to foxtail, green. The test can be described thus: Test D postemergence. In kind it is in vivo, Setaria viridis. To be noted: scale 0 to 100.
Text: as §1

Test [6] relates to chamomile. Kind of test: Test D postemergence. In kind it is in vivo, Matricaria inodora. As to conditions: scale 0 to 100.
Text: as §1

Test [7] concerns pigweed. Kind of test: Test D preemergence. Format: in vivo, Amaranthus retroflexus. As to conditions: scale 0 to 100.
Text: as §1

Test [8] relates to deadnettle. Kind of test: Test D postemergence. Format: in vivo, Lamium amplexicaule. As to conditions: scale 0 to 100.
Text: as §1

The test system of test [9] is waterhemp. Kind of test: Test C preemergence. Format: in vivo, Amaranthus rudis. To be noted: for Waterhemp plant response rating (0 to 100): Preemergence, visual rating after 13 to 15 d; for Plant response rating (scale of 0 to 100 where 0 is no effect and 100 is complete control): Waterhemp, preemergence, 250 g ai/ha. The text has this:
Seeds of plant species selected from blackgrass (Alopecurus myosuroides), ryegrass, Italian (Italian ryegrass, Lolium multiflorum), wheat (winter wheat, Triticum aestivum), galium (catchweed bedstraw, Galium aparine), corn (Zea mays), crabgrass, large (large crabgrass, Digitaria sanguinalis), foxtail, giant, (giant foxtail, Setaria faberii), johnsongrass (Sorghum halepense), lambsquarters (Chenopodium album), morningglory (Ipomoea coccinea), nutsedge, yellow (yellow nutsedge, Cyperus esculentus), pigweed (Amaranthus retroflexus), ragweed (common ragweed, Ambrosia elatior), soybean (Glycine max), barnyardgrass (Echinochloa crus-galli), oilseed rape (Brassica napus), waterhemp (common waterhemp, Amaranthus rudis), and velvetleaf (Abutilon theophrasti) were planted into a blend of loam soil and sand and treated preemergence with test chemicals formulated in a non-phytotoxic solvent mixture which included a surfactant. At the same time, plants selected from these crop and weed species and also chickweed (common chickweed, Stellaria media), oat, wild (wild oat, Avena fatua), and kochia (Kochia scoparia), were planted in pots containing Sunshine Redi-Earth® planting medium comprising spaghnum peat moss, vermiculite, starter nutrients and dolomitic limestone and treated with postemergence applications of test chemicals formulated in the same manner. Plants ranged in height from 2 to 18 cm (1- to 4-leaf stage) for postemergence treatments. […] A dash (-) response means no test result.

The test system of test [10] is ragweed. The test can be described thus: Test A preemergence. In kind it is in vivo, Ambrosia elatior. To be noted: 0 to 100 scale (0 no effect, 100 complete control). The text has this: Seeds of plant species selected from barnyardgrass (Echinochloa crus-galli), crabgrass, large (large crabgrass, Digitaria sanguinalis), kochia (Kochia scoparia), ragweed (common ragweed, Ambrosia elatior), foxtail, giant (giant foxtail, Setaria faberii), morningglory (Ipomoea spp.), pigweed (Amaranthus retroflexus), velvetleaf (Abutilon theophrasti), ryegrass, Italian (Italian ryegrass, Lolium multiflorum), wheat (Triticum aestivum), and corn (Zea mays) were planted into a blend of loam soil and sand and treated preemergence with a directed soil spray using test chemicals formulated in a non-phytotoxic solvent mixture which included a surfactant.
At the same time, plants selected from these crop and weed species and also blackgrass (Alopecurus myosuroides), and galium (catchweed bedstraw, Galium aparine), were planted in pots containing the same blend of loam soil and sand and treated with postemergence applications of test chemicals formulated in the same manner. Plants ranged in height from 2 to 10 cm and were in the one- to two-leaf stage for the postemergence treatment. Treated plants and untreated controls were maintained in a greenhouse for approximately 10 d, after which time all treated plants were compared to untreated controls and visually evaluated for injury. Plant response ratings, summarized in Table A, are based on a 0 to 100 scale where 0 is no effect and 100 is complete control. A dash (-) response means no test result.

Regarding `CCc1nc(-c2ccc(C(F)(F)F)cc2)nn1Cc1ccnc(C(F)(F)F)c1` [Compound 1, 4-[[5-ethyl-3-[4-(trifluoromethyl)phenyl]-1H-1,2,4-triazol-1-yl]methyl]-2-(trifluoromethyl)pyridine], the “Plant response rating: Field Poppy” value in test [1] (31 g ai/ha) was 70; in [1] (62 g ai/ha), 100; in test [1] (125 g ai/ha), 100; in test [1] (250 g ai/ha), 100; in test [3] (62 g ai/ha) it was 100; in test [3] (125 g ai/ha) it was 100. In addition, the “Plant response rating: Field Poppy” value in test [3] (250 g ai/ha) stood at 100. For the same compound, the “Plant response rating: Field Violet” value in [2] (31 g ai/ha), in test [2] (62 g ai/ha), in test [2] (125 g ai/ha) and in test [2] (250 g ai/ha) was 100 each time. Besides, the “Plant response rating: Speedwell” value in test [4] (31 g ai/ha), in [4] (62 g ai/ha), in test [4] (125 g ai/ha) and in test [4] (250 g ai/ha) was 100 each time. Further, the “Plant response rating: Foxtail, Green” value turned out to be 25 in [5] (31 g ai/ha), 45 in test [5] (62 g ai/ha), 65 in test [5] (125 g ai/ha) and 75 in test [5] (250 g ai/ha). Further, the “Plant response rating: Chamomile” value is 25 in [6] (31 g ai/ha), 35 in test [6] (62 g ai/ha), 55 in test [6] (125 g ai/ha) and 65 in test [6] (250 g ai/ha). The “Plant response rating: Pigweed” value in [7] (62 g ai/ha), in test [7] (125 g ai/ha) and in test [7] (250 g ai/ha) was 100 throughout. Further, the “Plant response rating: Deadnettle” value is reported as 65 in test [8] (31 g ai/ha), 60 in test [8] (62 g ai/ha), 70 in test [8] (125 g ai/ha) and 85 in [8] (250 g ai/ha).

`CCOc1nc(-c2ccc(F)cc2)nn1Cc1ccnc(C(F)(F)F)c1` [Compound 8, 4-[[5-ethoxy-3-(4-fluorophenyl)-1H-1,2,4-triazol-1-yl]methyl]-2-(trifluoromethyl)pyridine]: the results for the “Waterhemp plant response rating (0 to 100)” value in test [9] (31 g ai/ha) and in test [9] (62 g ai/ha) were 98 and 100, respectively. Further, the “Plant response rating (scale of 0 to 100 where 0 is no effect and 100 is complete control)” value in test [9] is reported as 100. In addition, the “Plant response rating: Field Poppy” value in test [1] (31 g ai/ha) is 80; in test [1] (62 g ai/ha), 90; in [1] (125 g ai/ha), 95; in test [1] (250 g ai/ha) it was 100; in [3] (62 g ai/ha) it was 100; in [3] (125 g ai/ha) it was 100. Further, the “Plant response rating: Field Poppy” value in [3] (250 g ai/ha) is given as 100. The “Plant response rating: Field Violet” value in test [2] (31 g ai/ha) is 70; in test [2] (62 g ai/ha) it was 75; in test [2] (125 g ai/ha), 90; in test [2] (250 g ai/ha), 100. Moreover, the “Plant response rating: Speedwell” value in test [4] (31 g ai/ha), in test [4] (62 g ai/ha), in [4] (125 g ai/ha) and in [4] (250 g ai/ha) was 100 throughout. In addition, the “Plant response rating: Foxtail, Green” value in test [5] (31 g ai/ha) was 40; in test [5] (62 g ai/ha) it was 75; in [5] (125 g ai/ha), 75; in test [5] (250 g ai/ha) it was 85. The “Plant response rating: Chamomile” value turned out to be 50 in test [6] (31 g ai/ha), 50 in [6] (62 g ai/ha), 60 in test [6] (125 g ai/ha) and 65 in test [6] (250 g ai/ha). The “Plant response rating: Pigweed” value in [7] (62 g ai/ha), in test [7] (125 g ai/ha) and in [7] (250 g ai/ha) was 100 in each case. Besides, the “Plant response rating: Deadnettle” value is reported as 75 in test [8] (31 g ai/ha), 80 in [8] (62 g ai/ha), 95 in test [8] (125 g ai/ha) and 90 in test [8] (250 g ai/ha).

For `COc1nc(-c2ccc(F)cc2)nn1Cc1ccnc(C(F)(F)F)c1` [Compound 9, 4-[[3-(4-fluorophenyl)-5-methoxy-1H-1,2,4-triazol-1-yl]methyl]-2-(trifluoromethyl)pyridine], the “Waterhemp plant response rating (0 to 100)” value in test [9] (31 g ai/ha) and in test [9] (62 g ai/ha) was 100 each time. Also, the “Plant response rating (scale of 0 to 100 where 0 is no effect and 100 is complete control)” value in [9] came to 100.

In the case of `COc1nc(-c2ccc(C(F)(F)F)cc2)nn1Cc1ccnc(C(F)(F)F)c1` [Compound 25], the “Plant response rating, Ragweed” value is 10 in test [10] (31 g ai/ha) and 20 in test [10] (125 g ai/ha).

With `CCOc1nc(-c2ccc(Cl)cc2)nn1Cc1ccnc(C(F)(F)F)c1` [Compound 26], the “Plant response rating, Ragweed” value stood at 60 in test [10] (31 g ai/ha) and 90 in [10] (125 g ai/ha).

Consider `COc1nc(-c2ccccc2)nn1Cc1ccnc(C(F)(F)F)c1` [Compound 32], for which the “Waterhemp plant response rating (0 to 100)” value in test [9] (31 g ai/ha) is on record as 90; in test [9] (62 g ai/ha), 100. Further, the “Plant response rating (scale of 0 to 100 where 0 is no effect and 100 is complete control)” value in test [9] is given as 100. Besides, the entries for the “Plant response rating, Ragweed” value in test [10] (125 g ai/ha) and in test [10] (500 g ai/ha) were 0 and 40, respectively.

As to `CCCOc1nc(-c2ccccc2)nn1Cc1ccnc(C(F)(F)F)c1` [Compound 33], the “Plant response rating, Ragweed” value in [10] (125 g ai/ha) was 20; in test [10] (500 g ai/ha), 30.
